Laboratory results taken from ChEMBL document CHEMBL6182905, “Fluorinated sulfonamide-flavonoid derivatives as novel Keap1-Nrf2 inhibitors: Potent induction of cytoprotective gene HO-1 in vivo” (Eur J Med Chem, 2025).

Test system: AML12
Experiment: Activation of Nrf2 in LPS-stimulated mouse AML12 cells assessed as fold increase in HO-1 gene expression at 10 uM incubated for 16 hrs
Format: cell-based
Details: filed as activator

Structure (SMILES)	fold change (FC)
COc1ccc(-c2cc(=O)c3ccc(NS(=O)(=O)c4cccc(OC)c4)cc3o2)cc1	3.7
O=C1c2c(O)cc(O)cc2O[C@H](c2cc(O)c(O)c(O)c2)[C@H]1O	1.4
O=C1C[C@@H](c2ccc(O)cc2)Oc2cc(O)ccc21	2
COc1ccc(-c2cc(=O)c3ccc(NS(=O)(=O)c4ccc(C)cc4C)cc3o2)cc1	3
O=c1c(O)c(-c2ccc(O)c(O)c2)oc2cc(O)cc(O)c12	1.4
COc1ccc(-c2cc(=O)c3ccc(NS(=O)(=O)c4ccc(OC)cc4OC)cc3o2)cc1	4
COc1ccc(-c2cc(=O)c3ccc(NS(=O)(=O)c4ccc(F)c(Br)c4)cc3o2)cc1	4.2
COc1ccc(-c2cc(=O)c3ccc(NS(=O)(=O)c4ccc(C(C)C)cc4)cc3o2)cc1	3.4
COc1ccc(-c2cc(=O)c3ccc(NS(=O)(=O)c4ccc(F)cc4Cl)cc3o2)cc1	3.6
COc1ccc(-c2cc(=O)c3ccc(NS(=O)(=O)c4ccc(C(F)(F)F)cc4)cc3o2)cc1	4.8
COc1ccc(-c2cc(=O)c3ccc(NS(=O)(=O)c4ccc(OC)cc4)cc3o2)cc1	4.6
COC(=O)CN(c1ccc2c(=O)cc(-c3ccc(OC)cc3)oc2c1)S(=O)(=O)c1ccc(OC)cc1	3.5
COc1ccc(-c2cc(=O)c3ccc(NS(=O)(=O)c4ccc([N+](=O)[O-])cc4)cc3o2)cc1	3.3
COC(=O)CN(c1ccc2c(=O)cc(-c3ccc(OC)cc3)oc2c1)S(=O)(=O)c1ccc(F)cc1	4.8
C[S+]([O-])CCCCN=C=S (configuration not stated)	5.8
CCc1ccc(S(=O)(=O)Nc2ccc3c(=O)cc(-c4ccc(OC)cc4)oc3c2)cc1	5

Structure (SMILES)	fold change (FC)
COc1ccc(-c2cc(=O)c3ccc(NS(=O)(=O)c4cccc(F)c4)cc3o2)cc1	4.5
COC(=O)CN(c1ccc2c(=O)cc(-c3ccc(OC)cc3)oc2c1)S(=O)(=O)c1ccc(C(F)(F)F)cc1	2.6
O=c1cc(-c2ccc(O)cc2)oc2cc(O)cc(O)c12	1.8
COc1ccc(-c2cc(=O)c3ccc(NS(=O)(=O)c4c(C)c(C)cc(C)c4C)cc3o2)cc1	2.8
COc1ccc(-c2cc(=O)c3ccc(NS(=O)(=O)c4cccs4)cc3o2)cc1	3.4
COc1ccc(-c2cc(=O)c3ccc(NS(=O)(=O)c4cccc(OC(F)(F)F)c4)cc3o2)cc1	4.2
COc1ccc(-c2cc(=O)c3ccc(N(CC(N)=O)S(=O)(=O)c4ccc(OC)cc4)cc3o2)cc1	2.3
COc1ccc(-c2cc(=O)c3ccc(NS(=O)(=O)c4ccc(C)cc4)cc3o2)cc1	3.1
COc1ccc(-c2cc(=O)c3ccc(NS(=O)(=O)c4ccccc4F)cc3o2)cc1	3.4
CCCCOc1ccc(S(=O)(=O)Nc2ccc3c(=O)cc(-c4ccc(OC)cc4)oc3c2)cc1	2.3
COc1ccc(-c2cc(=O)c3ccc(NS(=O)(=O)c4ccc(F)c(Cl)c4)cc3o2)cc1	4
COc1ccc(-c2cc(=O)c3ccc(NS(=O)(=O)c4ccccc4OC)cc3o2)cc1	3.3
COc1ccc(-c2cc(=O)c3ccc(NS(=O)(=O)c4ccc(F)cc4Br)cc3o2)cc1	3.2
COc1ccc(-c2cc(=O)c3ccc(NS(=O)(=O)c4ccc(OC(F)(F)F)cc4)cc3o2)cc1	7
COc1ccc(-c2cc(=O)c3ccc(NS(=O)(=O)c4ccccc4OC(F)(F)F)cc3o2)cc1	3.9
COc1ccc(-c2cc(=O)c3ccc(NS(=O)(=O)c4cccnc4)cc3o2)cc1	5.3
